# Experimental data as given in patent US10729659B2, “Nanogel-mediated drug delivery” (The Cleveland Clinic Foundation, priority 2012, dated 2020).
# Tests used:
# [1] = test system: MCF-7/Adr cells; assay: Microarray gene expression analysis; format: cell-based, human; conditions: decitabine vs untreated MCF-7/Adr
# Description: Microarray analysis was performed using the standard protocol provided by IlluminaCorporation (San Diego, Calif.). […] 20 μL of nuclease free water containing total RNA at the concentration of 100 ng/μL was stored at −80° C. Approximately […] of total RNA was subjected to gene expression array study using Illuminahuman 6v2 chip. The array-hybridization and scanning of array images were performed at the Cleveland Clinic Genomics Core. The microarray scanned image and intensity files were imported into Illumina Bead Studio Analysis software version 3.2.6 (Illumina Inc.). Error models were applied and ratios were built for each treatment array versus its respective vehicle control. For qPCR analysis, RNA isolated from treated and untreated cells were converted into cDNA using Mo-MLV reverse transcriptase (Promega Inc., USA) according to manufacturers' instructions. Taqman expression primers (Applied Biosystems Inc., USA) and ABI PRISM Sequence Detection Instrument 7700 (Applied Biosystems Inc., USA) were used for real-time reverse transcription-PCR (RT-PCR). Fold change in target genes was calculated about the human glyceraldehyde 3-phosphate dehydrogenase (GAPDH).
# [2] = DAC stability in liver extract; format: in vitro ADME; conditions: 15% w/v liver extract of athymic nude mice
# Description: Freshly prepared DAC solution (50 μg/mL) or DAC loaded nanogel (equivalent drug concentration) was added in cell culture media (DMEM supplemented with 15% FBS and 1% penicillin-streptomycin), and incubated in cell culture incubator at 37° C. in a 5% CO2. Samples were incubated as 2 mL aliquots at 37° C., collected at various time points and lyophilized for 48 h at −48° C., 3.5 Pa, using FreeZone 4.5 (Labconco Corp., Kansas City, Mo.). DAC was extracted from lyophilized samples by adding 3 mL of methanol and kept on an orbital rotating shaker at 100 rpm in cold room overnight. 1 mL of methanolic extract was centrifuged at 14,000 rpm for 15 min at 4° C.; supernatant was collected and analyzed by HPLC. Identical protocol was followed for analyzing the stability of DAC in Mili Q water containing 15% heat inactivated or normal serum. Stability of DAC was also analyzed in 15% w/v liver extract of athymic nude mice using the indicated protocol.
# [3] = test system: MCF-7/Adr cells; assay: Cell viability assay, DAC solution vs DAC nanogel; format: cell-based; conditions: Homo sapiens, NCI/ADR-RES, read-out: IC50 value at day 12 post drug treatment
# Description: Cytotoxicity of DAC in solution vs. DAC loaded nanogel was compared at day 5, 10 or 12 post drug additions in drug resistant cells. In a typical experiment; cells were seeded at 3000 cells/well in 96 well plates. 24 h post seeding, 0.1 mL cell culture media containing different concentrations of DAC solution or DAC nanogel was added and incubated for 3 d. Post incubation; cells were washed with 1×-DPBS and then replaced with drug free medium at every 48 h until cell viability was measured via an MTS assay kit (Promega CellTiter 96 AQueous Promega, Madison, Wis.). The effects of the drug on cell proliferation were calculated as the percentage cell growth vs. growth of control cells that received no drug treatment.
# Cytotoxicity of DAC in solution vs. different DAC loaded nanogel formulations was compared at day 5, 10 or 12 post drug additions in drug resistant cells. In a typical experiment, cells were seeded at 3000 cells/well in 96 well plates. Twenty four hr post seeding, 0.1 mL cell culture media containing different concentrations of DAC solution or DAC nanogel was added and incubated for 3 d. […] Cell viability was measured using MTS (Promega CellTiter 96 AQueous Promega, Madison, Wis.). The effects of the drug on cell proliferation were calculated as the percentage cell growth vs. growth of control cells that received no drug treatment.
# [4] = test system: P-gp; assay: Western blot of P-gp expression in MCF-7/Adr cells; format: cell-based, human
# Excerpt: Proteins ([…]) from DAC treated or untreated cell lysates in RIPA buffer were probed for mouse monoclonal P-glycoprotein (calbiochem) and mouse anti-actin (Sigma-Aldrich, St. Louis, Mo.). Blotting and detection of the indicated proteins were done as per standard western blot protocol.
# [5] = test system: MCF-7/Adr xenograft tumor; assay: In vivo anti-tumor efficacy, drug-resistant breast cancer model; design: species or system athymic nude mice; conditions: single intravenous dose 15 mg/kg; vs control nanogel, DAC in solution
# Description: A murine drug-resistant breast cancer model (MCF-7/ADR) was used to investigate the anti-tumor efficacy of DAC nanogels. To establish tumors, 1×10^6 MCF-7/ADR cells were suspended in 100 μL of matrigel (BD biosciences San Jose, Calif.) and injected in the mammary fat pad via a 27 G ½ gauge needle. Tumor nodules were allowed to grow to about 300 mm3 prior to receiving DAC nanogels (drug dose 15 mg/kg) or its respective controls (DAC in solution or Control Nanogels) intravenously. Post single treatment, tumor dimensions were measured with a digital caliper at regular time intervals and the tumor volume was calculated using the formula [length×(width)^2]/2. […] Data were expressed as mean±SEM (n=3 to 6). Variances in tumor growth were determined using one-way ANOVA test followed by Tukey test using GraphPad Prism version 4.0 for Windows (p<0.05).
# In vivo anti-tumor efficacy of DAC nanogels in athymic nude mice bearing MCF-7/Adr xenograft tumor: To establish tumors, 1×10^6 MCF-7/Adr cells were suspended in 100 μL of matrigel (BD biosciences San Jose, Calif.) and injected in the mammary fat pad via a 27 G ½ gauge needle. […] Tumor dimensions were measured with a digital caliper at regular time interval and the tumor volume was calculated using the formula [length×(width)2]/2. Data were expressed as mean±SEM (n=3 to 6). […]
smiles,measurement,setting,value
"Nc1ncn([C@H]2C[C@H](O)[C@@H](CO)O2)c(=O)n1 [DAC, 5-aza-2′-deoxycytidine]",Fold Change 48 h,"[1]; gene CDKN1A (p21, Cip1)",3.6 fold
same,Fold Change 48 h,[1]; gene CST6,52.8 fold
same,Fold Change 48 h,[1]; gene DPEP3,−87.8 fold
same,Fold Change 48 h,[1]; gene DPPA2,−11.2 fold
same,Fold Change 48 h,[1]; gene GAGE2,1754.4 fold
same,Fold Change 48 h,[1]; gene GAGE5,1358.9 fold
same,Fold Change 48 h,[1]; gene GAGE6,813.8 fold
same,Fold Change 48 h,[1]; gene GAGE7B,907.8 fold
same,Fold Change 48 h,[1]; gene GAGE8,411.0 fold
same,Fold Change 48 h,[1]; gene IL23A (p19),3.02 fold
same,Fold Change 48 h,[1]; gene MAGEA4,4.7 fold
same,Fold Change 48 h,[1]; gene MMP9,−215.1 fold
same,Fold Change 48 h,[1]; gene PAGE 4,11.6 fold
same,Fold Change 48 h,[1]; gene PAGE5,25.4 fold
same,Fold Change 48 h,[1]; gene PAK3,2.7 fold
same,Fold Change 48 h,[1]; gene PNMA5,−19.8 fold
same,Fold Change 48 h,[1]; gene PYCARD,23.6 fold
same,Fold Change 48 h,[1]; gene RASD1,35.6 fold
same,Fold Change 48 h,[1]; gene SOCSI,28.2 fold
same,Fold Change 48 h,[1]; gene SOX15,10.2 fold
same,Fold Change 48 h,[1]; gene STK31,1663.3 fold
same,Fold Change 48 h,[1]; gene TFF2,−16.8 fold
same,Fold Change 48 h,[1]; gene THY1,103.1 fold
same,Fold Change 48 h,[1]; gene TMEM101,33.7 fold
same,Fold Change 48 h,[1]; gene ZFP42,−22.5 fold
same,"Complete degradation of DAC, time post incubation",[2],60 min
same,IC50,[3],0.434 µg/mL
same,Decrease in P-gp protein expression vs untreated cells,[4]; day 1,45%
same,P-gp expression,[4]; day 3,returned to normal levels
same,Tumor growth / tumor size,[5],not different
